A word on the Km: it is the substrate concentration at which the rate is half of its maximum.

Data set [1] deals with T1, DHFR^Ser108 (reconstructed P. falciparum DHFR) (Plasmodium falciparum, UniProt P13922, N108S/R59C).
T1 construct: The gene encoding DHFR part of the P. falciparum DHFR-TS complex; made in house; host or cells: E. coli JM103, plasmid pET-PfDHFR^Ser108 (pET-3a), induced with M13-pKM2
Description: Inhibition of recombinant DHFR activity, spectrophotometric assay with Dixon plot analysis. It counts as biochemical. The source says:
(§1) The decrease in A340 was monitored by a HITACHI spectrophotometer U-2000. The blank sample consisted of all the reaction components except the enzyme.

In data set [2] the test system is DHFR^Thr108 (reconstructed P. falciparum DHFR). Conditions: Dixon plots for DHFR^Thr108 and DHFR^Ser108 (FIGS. 19A-19F).
Excerpt: as §1

Data set [3] relates to NC(=O)C1=CN([C@@H]2O[C@H](COP(=O)(O)OP(=O)(O)OC[C@H]3O[C@@H](n4cnc5c(N)ncnc54)[C@H](OP(=O)(O)O)[C@@H]3O)[C@@H](O)[C@H]2O)C=CC1. Nature of the data set: purified protein, by the assay type. Conditions: other: substrate Km, reconstructed P.f. DHFR Thr108 (Table IV); pH 7.6; 37.0 °C.
Data set [4] concerns the target SE47' recombinant SERA protein produced in E. coli (Plasmodium falciparum). Nature of the data set: ELISA of control mouse serum.
Data set [5] has as its target SE50A recombinant SERA protein produced in E. coli (Plasmodium falciparum). Description: ELISA of control rat serum. Background: ELISA stands for enzyme-linked immunosorbent assay.
The subject of a further data set is SE50A. Nature of the data set: ELISA value of rat sera immunized with recombinant SERA protein SE50A. It counts as in vivo. The following applies: individual rats 1-3; subcutaneous, insoluble form without adjuvant, days 1, 22, 50. The text has this: The SE50A protein was produced in E. coli cells as described for SE47'. The products were obtained as an inclusion body in the precipitate of lysed cells. The precipitate was solubilized with a buffer containing 5M guanidine HCl. After removal of insoluble materials, SE50A protein was precipitated by removing the 5M guanidine HCl again. These processes were repeated 3 times. The final precipitate contained SE50A at more than 80% purity. Three rats were immunized by subcutaneous injection of the insoluble form of SE50A without adjuvant three times on days 1, 22, and 50.

Data set [6] concerns Plasmodium falciparum (FCR3). Description: Plasmodium falciparum growth inhibition with anti-SERA serum. It counts as cell-based. The following applies: FCR3 culture, serum dilutions, parasitemia after 72 hours (FIGS. 16A-16B). The protocol: FIGS. 16A and 16B show Plasmodium falciparum growth inhibition with anti-SER47' and anti-SE50A serum. […] The inhibition confirms that the new constructs of SERA (FIG. 10, FIG. 11, and FIG. 12) produce immunogenic material and that adjuvant enhances the induction of parasite inhibitory levels of antibodies.
The Plasmodium falciparum cell (FCR3) was grown in an in vitro culture containing 5% red blood cells (RBC). When the parasitized RBC, 96% were trophozoite and schizont, reached 4.4% of total RBC, the culture was diluted to 1% of parasitized cell in total RBC and 2% of RBC in medium. The 100 µl of the diluted culture was incubated in a 96 well dish. The culture media which contains rat or mouse serum at the indicated dilution were changed each 24 hours. Parasitemia was measured by Giemsa staining after 72 hours incubation. The sera used here were from the animal #3 of SE47' and #1 of SE50A, each of whose ELISA titer was described in Table VI.

Another data set concerns SERA protein. Description: Immunoblot of whole cellular proteins of Plasmodium falciparum FCR3 strain with antiserum against SE47' or SE50A. It is filed as binding. Conditions: mouse anti-SE47' serum, rat anti-SE50A serum. How it is done: The antisera used for the immunoblot were as follows: lane 1, control mouse serum; lane 2, mouse anti-SF47' serum; lane 3, control rat serum; lane 4, rat anti-SE50A serum. The arrow indicates the molecular weight corresponding to SERA protein.
Parasite cells were isolated by saponin lysis of the in vitro culture. The prepared cells were analyzed by immunoblotting using SDS-polyacrylamide gel electrophoresis (12.5%). The antisera used for the immunoblot (FIG. 15) were as follows: lane 1, control mouse serum; lane 2, mouse #3 anti-SE47' serum; lane 3, control rat serum; lane 4, rat #1 anti-SE50A serum. The arrow indicates the molecular weight corresponding to SERA protein.
A general note: A western blot detects proteins with antibodies after separation by electrophoresis.

The mark [7] stands for this setting: substrate Km of DHFR^Ser108, as stated in text.
[8] abbreviates: substrate Km, reconstructed P.f. DHFR Ser108 (Table IV).

Values joined by “and” are separate entries in the source; they are usually repeats but may differ in a detail not shown here. Identical values can stand only once.

For `Nc1nc2c(c(=O)[nH]1)N=C(CNc1ccc(C(=O)N[C@@H](CCC(=O)O)C(=O)O)cc1)CN2` [DHF], the Km was determined as 67 µM in data set [1] (setting [7]) and 66.6 ± 2.6 µM in data set [1] (setting [8]).
In the same order, the values of `NC(=O)C1=CN([C@@H]2O[C@H](COP(=O)(O)OP(=O)(O)OC[C@H]3O[C@@H](n4cnc5c(N)ncnc54)[C@H](OP(=O)(O)O)[C@@H]3O)[C@@H](O)[C@H]2O)C=CC1` [NADPH] are 90 µM and 90.2 ± 4.3 µM.
Turning to `CN(Cc1cnc2nc(N)nc(N)c2n1)c1ccc(C(=O)N[C@@H](CCC(=O)O)C(=O)O)cc1` [methotrexate], in data set [2], the “manner of enzyme inhibition” value is “competitive”.
Consider `CCc1nc(N)nc(N)c1-c1ccc(Cl)cc1` [pyrimethamine], for which, in data set [2], the “manner of enzyme inhibition” value is reported as “competitive”.
With “DHFR^Thr108 (reconstructed P. falciparum DHFR) (Plasmodium falciparum K1; N108T/R59C)”, the Km in data set [3] turned out to be 19.2 ± 0.4 µM.
With “control mouse serum (polyclonal serum or antibody)”, the ELISA Titer in data set [4] was less than 200.
With “control rat serum (polyclonal serum or antibody)”, the ELISA Titer in data set [5] was less than 50.

B1: SE50A: recombinant portion of the 50 kd processed SERA protein, SEQ ID NO: 17, produced in E. coli as inclusion body (protein)
chain: MKDENNCISNLQVEDQGNCDTSWIFASKYHLETIRCMKGYEPTKISALYVANCYKGEHKDRCDEGSSPMEFLQIIEDYGFLPAESNYPYNYVKVGEQCPKVEDHWMNLWDNGKILHNKNEPNSLDGKGYTAYESERFHDNMDAFVKIIKTEVMNKGSVIAYIKAENVMGYEFSGKKVQNLCGDDTADHAVNIVGYGNYVNSEGEKKSYWIVRNSWGPYWGDEGYFKVDMYGPTHCHIEF
In the case of B1, the “ELISA Titer” value in the data set with SE50A was 10,000 and 8,330. The “parasite growth inhibition by antiserum raised against the protein” value in data set [6] is “indistinguishable from control serum except at the lowest dilution”. Further, the “recognition of SERA protein by antiserum in immunoblot” value with SERA protein is listed as “recognize the complete SERA protein”.

These data come from patent US6333406A, “Gene encoding protein antigens of Plasmodium falciparum and uses therefor” (priority 1994, dated 2001).
